Experiment [1] has as its system Mus musculus. The experiment can be described thus: Dose required to induce hyperactivity in mice (ip); not active at a dose of 50.0 mg/kg. Format: functional, organism-based. Set-up: dose 50 mg/kg.
The subject of experiment [2] is Mus musculus. The experiment can be described thus: Minimal dose required to cause aggressiveness in mice after ip administration; not active at a dose of 50.0 mg/kg. Format: functional, organism-based. Set-up: dose 50 mg/kg.
Experiment [3] concerns Mus musculus. The experiment can be described thus: Minimal dose required to induce in mice exophthalmus (ip); not active at a dose of 50.0 mg/kg. Set-up: dose 50 mg/kg. Format: functional, organism-based.
Experiment [4] relates to Mus musculus. As to the kind of experiment: Minimal dose required to induce in mice straub tail (ip); not active at a dose of 50.0 mg/kg. On the set-up: dose 50 mg/kg. In kind it is functional, organism-based.
Experiment [5] concerns Mus musculus. The experiment can be described thus: Dose at which 50% convulsions occurred in mice (ip). In kind it is functional.
Experiment [6] relates to Mus musculus. As to the kind of experiment: Dose required to induce hypersensitivity in mice (ip); not active at a dose of 50.0 mg/kg. In kind it is functional, organism-based. On the set-up: dose 50 mg/kg.
In experiment [7] the test system is Mus musculus. As to the kind of experiment: Lethal dose by i.p. administration. Particulars: ip. In kind it is functional.
In experiment [8] the test system is Felis catus. The experiment can be described thus: Compound tested to induce facilitation of monosynaptic spikes in spinal ventral root by stimulation of the dorsal root (DR-VR) after iv administration in cats. Format: functional.
The test system of experiment [9] is Mus musculus. As to the kind of experiment: Minimal dose required to induce hyperaesthesia in mice (ip); not active at a dose of 50.0 mg/kg. Format: functional, organism-based. Set-up: dose 50 mg/kg.
Experiment [10] has as its system Mus musculus. As to the kind of experiment: Minimal dose required to cause piloerection in mice after ip administration; not active at a dose of 50.0 mg/kg. In kind it is functional, organism-based. Set-up: dose 50 mg/kg.
In experiment [11] the test system is Mus musculus. As to the kind of experiment: Inhibition of reserpine (5 mg/kg i.p.) induced hypothermia in mice 4 hr after i.p. administration. Format: functional. Particulars: ip.
For experiment [12], the system named is Mus musculus. The experiment can be described thus: Inhibition of reserpine (5 mg/kg i.p.) induced hypothermia in mice 2 hr after i.p. administration. In kind it is functional. The following applies: ip.
Experiment [13] has as its system Mus musculus. As to the kind of experiment: Minimal dose required to induce in mice straub tail (ip). Format: functional.
For experiment [14], the system named is Mus musculus. As to the kind of experiment: Dose required to induce hypersensitivity in mice (ip); weak active at a dose of 12.5 mg/kg. In kind it is functional, organism-based. On the set-up: dose 12.5 mg/kg.
The subject of experiment [15] is Mus musculus. As to the kind of experiment: Minimal dose required to cause piloerection in mice after ip administration; not active at a dose of 12.5 mg/kg. Format: functional, organism-based. On the set-up: dose 12.5 mg/kg.
The subject of experiment [16] is Mus musculus. As to the kind of experiment: Minimal dose required to cause aggressiveness in mice after ip administration. Format: functional.
Experiment [17] concerns Mus musculus. The experiment can be described thus: Minimal dose required to induce hyperaesthesia in mice (ip). Format: functional.
The test system of experiment [18] is Mus musculus. The experiment can be described thus: Dose required to induce hyperactivity in mice (ip). Format: functional.
The test system of experiment [19] is Mus musculus. The experiment can be described thus: Minimal dose required to induce in mice exophthalmus (ip). In kind it is functional.
Experiment [20] has as its system Felis catus. As to the kind of experiment: Compound tested to induce facilitation of monosynaptic spikes in spinal ventral root by stimulation of the dorsal root (DR-VR) after iv administration in cats; 0.3-1.0. In kind it is functional.
The test system of experiment [21] is Mus musculus. As to the kind of experiment: Dose required to induce hypersensitivity in mice (ip). In kind it is functional.
In experiment [22] the test system is Mus musculus. As to the kind of experiment: Minimal dose required to cause piloerection in mice after ip administration. Format: functional.
For experiment [23], the system named is Mus musculus. As to the kind of experiment: Dose required to induce hypersensitivity in mice (ip); not active at a dose of 25.0 mg/kg. Format: functional, organism-based. Set-up: dose 25 mg/kg.
The test system of experiment [24] is Mus musculus. As to the kind of experiment: Minimal dose required to cause piloerection in mice after ip administration; not active at a dose of 25.0 mg/kg. On the set-up: dose 25 mg/kg. Format: functional, organism-based.
For experiment [25], the system named is Mus musculus. As to the kind of experiment: Dose required to induce hyperactivity in mice (ip); not active at a dose of 25.0 mg/kg. In kind it is functional, organism-based. On the set-up: dose 25 mg/kg.
Experiment [26] relates to Mus musculus. As to the kind of experiment: Minimal dose required to cause aggressiveness in mice after ip administration; not active at a dose of 25.0 mg/kg. Format: functional, organism-based. Set-up: dose 25 mg/kg.

Molecules are shown by their SMILES. Active and inactive are the calls of the source. No cut-off for these calls is given here.

By ED50 is commonly meant the dose that gives a 50% effect, or the effect in half of the subjects. A word on the LD50: it is the dose at which mortality reaches 50%. As for `OC1(c2ccc(Cl)cc2Cl)Cc2ccccc2C2=NCCN21` (stereo unspecified), the ED50 entry in the experiment with Mus musculus [1] and in the experiment on Mus musculus [6] was “inactive” in each case. Besides, the MD entry with Mus musculus [2], with Mus musculus [3], in the experiment on Mus musculus [4], with Mus musculus [9] and in the experiment on Mus musculus [10] was “inactive” in each case. Moreover, the CD50 in the experiment on Mus musculus [5] was found to be 75 mg/kg. The LD50 in the experiment with Mus musculus [7] came out at 81.3 mg/kg. For the same molecule, the Activity in the experiment with Felis catus [8] is >3 mg/kg. Moreover, the ED50 was > 25.6 mg/kg in the experiment with Mus musculus [11] and 5.4 mg/kg in the experiment on Mus musculus [12].
As to `OC1(c2cccc(F)c2)Cc2ccccc2C2=NCCN21` (stereo unspecified), the MD with Mus musculus [13], with Mus musculus [16], in the experiment on Mus musculus [17] and with Mus musculus [19] was 9.4 mg/kg throughout. Besides, the ED50 result was “Weak” in the experiment on Mus musculus [14], 5.2 mg/kg with Mus musculus [11], 12.5 mg/kg in the experiment on Mus musculus [18] and 0.7 mg/kg in the experiment on Mus musculus [12]. In the experiment with Mus musculus [15], the MD entry is “inactive”. The LD50 with Mus musculus [7] is 21 mg/kg.
As to `OC1(c2ccc(F)cc2)Cc2ccccc2C2=NCCN21` (stereo unspecified), in the experiment on Felis catus [20], the Activity was 0.3 mg/kg. For the same molecule, the median effective dose (ED50) came out at 25 mg/kg with Mus musculus [21], 10 mg/kg in the experiment on Mus musculus [11], 25 mg/kg with Mus musculus [18] and 0.06 mg/kg with Mus musculus [12]. Further, the MD in the experiment on Mus musculus [13] came out at 9.4 mg/kg; in the experiment with Mus musculus [17] it was 18.8 mg/kg; in the experiment on Mus musculus [22] it was 18.8 mg/kg; with Mus musculus [19], 9.4 mg/kg. The molecule further gave a CD50 with Mus musculus [5] of 75 mg/kg. The LD50 in the experiment on Mus musculus [7] turned out to be 76.9 mg/kg.
Regarding `OC1(c2ccc(Cl)cc2)c2ccccc2C2=NCCN21` (stereo unspecified) [MAZINDOL], the values for the ED50 in the experiment with Mus musculus [11] and with Mus musculus [12] were 0.12 mg/kg and 0.05 mg/kg, respectively.
Consider `OC1(c2ccc(Cl)cc2)Cc2ccccc2C2=NCCN21` (stereo unspecified), for which the figures for the MD in the experiment on Mus musculus [13], in the experiment with Mus musculus [17] and in the experiment with Mus musculus [19] were 18.8 mg/kg, 37.5 mg/kg and 18.8 mg/kg, respectively. For the same molecule, in the experiment with Mus musculus [23], the ED50 result was “inactive”. Besides, in the experiment on Mus musculus [5], the CD50 was 37.5 mg/kg. In the experiment with Mus musculus [7], this molecule showed a 50% lethal dose (LD50) of 75 mg/kg. Further, the Activity in the experiment with Felis catus [8] is >1 mg/kg. For the same molecule, the ED50 with Mus musculus [11] was 6.4 mg/kg; in the experiment on Mus musculus [18], 25 mg/kg; in the experiment with Mus musculus [12], 0.025 mg/kg. For the same molecule, in the experiment with Mus musculus [24], the MD result is “inactive”.
With `OC1(c2ccncc2)Cc2ccccc2C2=NCCN21` (stereo unspecified), the MD in the experiment on Mus musculus [13], in the experiment with Mus musculus [17] and in the experiment with Mus musculus [19] was 18.8 mg/kg throughout. In addition, in the experiment with Mus musculus [25], the ED50 result is “inactive”. Further, the ED50 result with Mus musculus [23] was “Weak”; in the experiment on Mus musculus [11], 3.3 mg/kg; in the experiment with Mus musculus [12] it was 2.3 mg/kg. Moreover, the CD50 with Mus musculus [5] was 37.5 mg/kg. In the experiment with Mus musculus [7], this molecule registered an LD50 of 37.9 mg/kg. For the same molecule, the MD result in the experiment with Mus musculus [26] and in the experiment with Mus musculus [24] was “inactive” each time.
`OC1(c2cccnc2)Cc2ccccc2C2=NCCN21` (stereo unspecified): the ED50 result in the experiment with Mus musculus [1] and in the experiment on Mus musculus [6] was “inactive” each time. For the same molecule, the MD entry in the experiment on Mus musculus [2], in the experiment on Mus musculus [3], in the experiment on Mus musculus [4], in the experiment with Mus musculus [9] and in the experiment on Mus musculus [10] was “inactive” each time. The molecule also yielded a CD50 in the experiment on Mus musculus [5] of 75 mg/kg. In the experiment with Mus musculus [7], this molecule came in with an LD50 of 68.8 mg/kg. The ED50 with Mus musculus [11] was > 25.6 mg/kg; in the experiment on Mus musculus [12], 7 mg/kg.
Turning to `OC1(c2cccs2)Cc2ccccc2C2=NCCN21` (stereo unspecified), the ED50 in the experiment on Mus musculus [21] was 25 mg/kg; with Mus musculus [11] it was > 25.6 mg/kg; in the experiment on Mus musculus [12] it was 4.5 mg/kg. Moreover, the MD was 18.8 mg/kg in the experiment with Mus musculus [13], 18.8 mg/kg in the experiment with Mus musculus [17], 25 mg/kg in the experiment on Mus musculus [22] and 18.8 mg/kg in the experiment on Mus musculus [19]. For the same molecule, the ED50 entry with Mus musculus [25] was “inactive”. Further, in the experiment with Mus musculus [5], the CD50 is 75 mg/kg. This molecule also displayed a 50% lethal dose (LD50) in the experiment with Mus musculus [7] of 68.8 mg/kg. The MD entry in the experiment on Mus musculus [26] was “inactive”.
As for `CN(C)CCCN1c2ccccc2CCc2ccccc21` [IMIPRAMINE], the ED50 in the experiment on Mus musculus [11] is 12.8 mg/kg; with Mus musculus [12], 6.3 mg/kg.

Source of the values: ChEMBL document CHEMBL1122475, “Antidepressant activity of 5-aryl-2,3,5,6-tetrahydroimidazo[2,1-a]isoquinolin-5-ols” (1983).
